Converted amounts (≈) assume the structure as drawn. Read-outs that look alike come from different tables or passages of the source. Where a SMILES comes first, the peptide text is derived from it.
Columns and labels:
[1] = test system: Listeria monocytogenes ATCC 19115; format: cell-based
[2] = test system: Pseudomonas aeruginosa ATCC 27853; format: cell-based
[3] = test system: Salmonella typhimurium ATCC 14028; format: cell-based
[4] = test system: Enterobacter cloacae ATCC 23355; format: cell-based
[5] = test system: Bacillus subtilis ATCC 6633; format: cell-based
[6] = test system: Escherichia coli ATCC 35218; format: cell-based
[7] = test system: Escherichia coli ATCC 25922; format: cell-based
[8] = test system: Enterococcus faecium ATCC 35667; format: cell-based
[9] = test system: Klebsiella pneumoniae ATCC 13883; format: cell-based
[10] = test system: Streptococcus pneumoniae ATCC 49619; format: cell-based
[11] = test system: Shigella sonnei ATCC 25931
Method: The MIC values were determined by the method of microdilution in liquid medium (NCCLS M7A5) for all of the bacterial species on 96-well polystyrene plates.
The culture medium was Mueller-Hinton broth (MHB) (pH≈7.2-7.4) with supplements according to the bacterial species studied: • MHB alone for the non-exigent species, • MHB+3% lysed horse blood for the streptococci, Listeria and Neisseria, • MHB+hemin 15 mg/l+NAD 15 mg/l+yeast extract 5 g/l for Haemophilus.
The bacterial inoculum was prepared from re-isolation performed on: • CLED agar: non-exigent strains, • blood agar+5% goat blood: streptococci, Listeria and Neisseria • chocolate agar+5% goat blood: Haemophilus, Neisseria.
The final inoculum was at ≈5·10^5 cfu/ml (colony forming units). 50 μl of bacterial inoculum was distributed per well containing an equal volume of the peptide solution diluted by half in the appropriate culture medium depending on the bacterial species (0.5 to 512 μg/ml). The cultures were incubated at 35° C. in ambient air for 16 to 20 hours (20 to 24 h for the streptococci).
Determination of the MBC values was performed after inhibition and reading of the MIC plates:
A volume of 3 μl of each concentration of antibiotic was deposited on the agar media: • MH: for the non-exigent strains, • MH+5% sheep blood: for the streptococci, Listeria, Bacillus and Neisseria, • HTM: for the Haemophilus.
The agars were incubated for 18 h at 35° C. in atmosphere: • in ambient air: for the non-exigent strains, • with 5-6% of CO2: for the streptococci, Listeria, Haemophilus and Neisseria.
The MBC is the lowest concentration of antibiotic that inhibits all bacterial growth on the transplant agar (<0. 1% of survivors).

[12] = test system: Acinetobacter baumanii ATCC 19606; format: cell-based
C. neoformans Cn52D = format: cell-based, Cryptococcus neoformans
Method: D. Determination of the miminimal inhibitory concentration (MIC) in liquid medium for the Filamentous Fungi and Yeast
Peptide concentrations tested: from 0.2 μg/ml to 100 μg/ml.

[13] = test system: Staphylococcus aureus ATCC 14154; format: cell-based
[14] = test system: Streptococcus pyogenes ATCC 19615; format: cell-based
[15] = In vivo toxicity: maximal tolerated dose (MTD); settings: mouse, female OFI mice, intravenous perfusion approx. 15 minutes, 28 days after an injection
Method: The maximal tolerated dose (MTD) for each peptide was determined on female OFI mice at 28 days after an injection. The MTD was defined as the maximal nonlethal dose that could be injected. The peptides were administered by the intravenous route as a perfusion of approximately 15 minutes duration. The injection volume was 10 μl/g, the perfusion rate was 1.2 ml/hour and the excipient was a solution of NaCl at 0.8%.

[16] = test system: Staphylococcus epidermidis ATCC 12228; format: cell-based
[17] = test system: Haemophilus influenzae ATCC 49247; format: cell-based
[18] = test system: Citrobacter freundii ATCC 8090; format: cell-based
[19] = test system: Streptococcus pneumoniae ATCC 6303; format: cell-based
Neisseria sica ATCC 9913 = format: cell-based
[20] = test system: Enterococcus faecalis ATCC 19433; format: cell-based
[21] = test system: Bacillus cereus ATCC 11778; format: cell-based
[22] = test system: Staphylococcus aureus ATCC 25923; format: cell-based
[23] = test system: Enterobacter aerogenes ATCC 13048; format: cell-based
[24] = test system: Proteus vulgaris ATCC 13315; format: cell-based
[25] = test system: Streptococcus agalactiae ATCC 13813; format: cell-based
[26] = test system: Enterococcus faecalis ATCC 29212; format: cell-based
[27] = test system: Serratia marcescens ATCC 8100; format: cell-based
[28] = test system: Micrococcus luteus ATCC 9341; format: cell-based
[29] = test system: Shigella flexneri ATCC 112022
[30] = Javadpour et al. 1996; cited from earlier work
bacteria = experiment: In vitro antibacterial properties under standard evaluation conditions (incubation of 18 hours); format: cell-based; settings: concentrations described in the literature
Description: In contrast, I unexpectedly discovered that KLAKLAK (SEQ ID NO: 11) is capable of conferring antibacterial and/or antifungal properties on peptides comprising this motif and a peptide sequence not having antibacterial and/or antifungal properties.

[31] = test system: three strains of bacteria (E. coli, P. aeruginosa and S. aureus); settings: incubation period of 4 hours; cited from earlier work
human erythrocytes = experiment: Hemolytic activity on human erythrocytes; settings: 30 minutes, 0 to 500 μg/ml, absorbance 414 nm
Method: 1·10^6 human erythrocytes were incubated for 30 minutes with increasing concentrations of peptides (from 0 to 500 μg/ml) in a final volume of 150 μl. The hemolytic activity was evaluated by measurement of the absorbance (Abs) at the wave length 414 nm (Absorbance of hemoglobin) of the cellular supernatants. The absorbance of the supernatant after incubation of the erythrocytes in water corresponds to 100% (Abs100) of hemolysis and the absorbance of the supernatant after incubation of the erythrocytes in PBS corresponds to 0% of hemolysis (Abs0). The hemolytic activity of the peptides expressed in percentage corresponds to (Abspeptide−Abs0)/Abs100×100.

## CC(C)C[C@H](NC(=O)CNC(=O)[C@H](CCCNC(=N)N)NC(=O)[C@H](CCCCN)NC(=O)[C@@H](N)C(C)C)C(=O)N[C@@H](CCCCN)C(=O)N[C@@H](CC(C)C)C(=O)N[C@@H](CCCCN)C(=O)N[C@@H](CC(C)C)C(=O)N[C@@H](C)C(=O)N[C@@H](CCCCN)C(=O)N[C@@H](CC(C)C)C(=O)N[C@@H](C)C(=O)N[C@@H](CCCCN)C(=O)N[C@@H](CCCCN)C(=O)N[C@@H](CC(C)C)C(=O)N[C@@H](C)C(=O)N[C@@H](CCCCN)C(=O)N[C@@H](CC(C)C)C(=O)N[C@@H](C)C(=O)N[C@@H](CCCCN)C(=O)O [Peptide 1] (H-VKRGLKLKLAKLAKKLAKLAK-OH; N-terminus and C-terminus assumed)
[1]
  MBC: 128 µg/mL (≈ 55.2 µM)
  MIC: 128 µg/mL (≈ 55.2 µM)
[2]
  MBC: >512 µg/mL
  MIC: 512 µg/mL (≈ 221 µM)
[3]
  MBC: 8 µg/mL (≈ 3.45 µM)
  MIC: 8 µg/mL (≈ 3.45 µM)
[4]
  MBC: 16 µg/mL (≈ 6.9 µM)
  MIC: 16 µg/mL (≈ 6.9 µM)
[5]
  MBC: 8 µg/mL (≈ 3.45 µM)
  MIC: 8 µg/mL (≈ 3.45 µM)
[6]
  MBC: 8 µg/mL (≈ 3.45 µM)
  MIC: 8 µg/mL (≈ 3.45 µM)
[7]
  MBC: 16 µg/mL (≈ 6.9 µM)
  MIC: 16 µg/mL (≈ 6.9 µM)
[8]
  MBC: >512 µg/mL
  MIC: 128 µg/mL (≈ 55.2 µM)
[9]
  MBC: >512 µg/mL
  MIC: >512 µg/mL
[10]
  MBC: 256 µg/mL (≈ 110 µM)
  MIC: 128 µg/mL (≈ 55.2 µM)
[11]
  MBC: 4 µg/mL (≈ 1.72 µM)
  MIC: 4 µg/mL (≈ 1.72 µM)
[12]
  MBC: 16 µg/mL (≈ 6.9 µM)
  MIC: 8 µg/mL (≈ 3.45 µM)
C. neoformans Cn52D
  MIC: 12.5 µg/mL (≈ 5.39 µM)
[13]
  MBC: 128 µg/mL (≈ 55.2 µM)
  MIC: 64 µg/mL (≈ 27.6 µM)
[14]
  MBC: 64 µg/mL (≈ 27.6 µM)
  MIC: 64 µg/mL (≈ 27.6 µM)
[15]
  MTD at 28 days: > 23.2 mg/kg
[16]
  MBC: 4 µg/mL (≈ 1.72 µM)
  MIC: 4 µg/mL (≈ 1.72 µM)
[17]
  MBC: 64 µg/mL (≈ 27.6 µM)
  MIC: 64 µg/mL (≈ 27.6 µM)
[18]
  MBC: 16 µg/mL (≈ 6.9 µM)
  MIC: 16 µg/mL (≈ 6.9 µM)
[19]
  MBC: 64 µg/mL (≈ 27.6 µM)
  MIC: 64 µg/mL (≈ 27.6 µM)
Neisseria sica ATCC 9913
  MBC: 128 µg/mL (≈ 55.2 µM)
  MIC: 4 µg/mL (≈ 1.72 µM)
[20]
  MBC: >512 µg/mL
  MIC: >512 µg/mL
[21]
  MBC: 128 µg/mL (≈ 55.2 µM)
  MIC: 128 µg/mL (≈ 55.2 µM)
[22]
  MBC: 64 µg/mL (≈ 27.6 µM)
  MIC: 64 µg/mL (≈ 27.6 µM)
[23]
  MBC: 256 µg/mL (≈ 110 µM)
  MIC: 256 µg/mL (≈ 110 µM)
[24]
  MBC: 256 µg/mL (≈ 110 µM)
  MIC: 128 µg/mL (≈ 55.2 µM)
[25]
  MBC: 128 µg/mL (≈ 55.2 µM)
  MIC: 128 µg/mL (≈ 55.2 µM)
[26]
  MBC: >512 µg/mL
  MIC: >512 µg/mL
[27]
  MBC: >512 µg/mL
  MIC: >512 µg/mL
[28]
  MBC: 4 µg/mL (≈ 1.72 µM)
  MIC: 4 µg/mL (≈ 1.72 µM)
[29]
  MBC: 32 µg/mL (≈ 13.8 µM)
  MIC: 16 µg/mL (≈ 6.9 µM)

## KLAKLAKKLAKLAK [14-mer linear peptide, literature 14-mer linear peptide (Javadpour et al. 1996)]
[30]
  hemolysis: nonhemolytic
bacteria
  antibacterial activity: did not reveal any biological activity
[31]
  antibacterial activity: showed activity

## CC(C)C[C@H](NC(=O)[C@H](CCCCN)NC(=O)CNC(=O)[C@H](CCCCN)NC(=O)[C@H](CCCCN)NC(=O)[C@H](CCCCN)NC(=O)[C@H](CCCNC(=N)N)NC(=O)[C@H](CCCCN)NC(=O)CNC(=O)[C@H](CCCCN)NC(=O)[C@H](C)NC(=O)[C@H](CC(C)C)NC(=O)[C@H](CCCCN)NC(=O)[C@H](C)NC(=O)[C@H](CC(C)C)NC(=O)[C@H](CCCCN)NC(=O)[C@H](CCCCN)NC(=O)[C@H](C)NC(=O)[C@H](CC(C)C)NC(=O)[C@H](CCCCN)NC(=O)[C@H](C)NC(=O)[C@H](CC(C)C)NC(=O)[C@@H](N)CCCCN)C(=O)NCC(=O)N[C@@H](CCCCN)C(=O)N[C@@H](CCCCN)C(=O)N[C@@H](CCCNC(=N)N)C(=O)N[C@@H](CC(=O)O)C(=O)N1CCC[C@H]1C(=O)O [Peptide 3] (H-KLAKLAKKLAKLAKGKRKKKGKLGKKRDP-OH; N-terminus and C-terminus assumed)
[2]
  MIC: 64 µg/mL (≈ 19.8 µM)
[6]
  MIC: 64 µg/mL (≈ 19.8 µM)
Human erythrocytes
  hemolytic activity: did not exhibit hemolytic activity
C. neoformans Cn52D; tested 0.2 to 100 μg/ml
  MIC: 1.56 µg/mL (≈ 0.483 µM)
[19]
  MIC: >500 µg/mL
[22]
  MIC: 64 µg/mL (≈ 19.8 µM)
[26]
  MIC: 64 µg/mL (≈ 19.8 µM)
